Results from patent publication US20210038559A1, “CANNABINOIDS AND DERIVATIVES FOR PROMOTING IMMUNOGENICITY OF TUMOR AND INFECTED CELLS” (priority 2018, published 2021).

Tests used:
[1] = system: MHC class I expression on COLO 205 cells; assay: MHC class I expression on COLO 205 cells, 24 hours, flow cytometry (W6/32); conditions: for MFI: W6/32 staining; for increase in MHC class I expression: 24 hours, relative to non-treated cells
Description: FIG. 2A-2F. […] Cells were treated for 24 hours and cell surface MHC class I expression was measured by flow cytometry.
Cannabigerol was also tested for its capacity to induce MHC class I expression in a human colorectal carcinoma cell line, COLO 205. The cells were treated with either 25 μM or 50 μM cannabigerol for 24 hours. Fluorophor (Alexa Fluor 488)-conjugated W6/32 antibody (Thermo Fisher) was used in a flow cytometry assay to quantitate MHC class I expression. […] Cannabigerol is only one of many cannabinoid-like molecules with potential biopharmaceutical activity. […] COLO 205 cells were treated with up to 40 μM of the cannabinoids 1-5 presented in Tables 1 and 2 and evaluated for cell surface MHC class I expression as described above for cannabigerol.

[2] = system: MHC class I expression, mouse Lewis lung carcinoma cell line A9; assay: MHC class I expression in mouse A9 Lewis lung carcinoma cells, 24 hours, flow cytometry; assay type: cell-based; conditions: 21 μM, relative to the DMSO control
Description: FIG. 1A-1B. Cannabigerol stimulates MHC class I expression in the mouse A9 Lewis lung carcinoma (FIG. 1A) and the human COLO 205 colorectal carcinoma (FIG. 1B) cell lines. Cells were treated for 24 hours with 21.2 μM (A) or 25 and 50 μM (FIG. 1B) cannabigerol.
Cannabigerol, a representative cannabinoid, was tested for its ability to also stimulate MHC class I expression in mammalian cancer cell lines. The mouse Lewis lung carcinoma cell line, A9, was treated with 21 μM of cannabigerol for 24 hours prior to flow cytometric analysis of cell surface expression of MHC class I expression levels using the MHC class I antibody W6/32 (Thermo Fisher). Control conditions included the vehicle, dimethyl sulfoxide (DMSO, 1%) alone, and 100 ng/ml of trichostatin A (TSA), a histone deacetylase inhibitor and known inducer of MHC class I expression in mammalian cells. […] The positive control, TSA, stimulated expression by 2.4-fold.

[3] = system: MHC class I expression, metastatic mouse tumor cell line; assay: Indirect screen for compounds that increase MHC class I expression in a metastatic mouse tumor cell line; assay type: cell-based
Excerpt: An assay has been developed to indirectly screen for compounds that increase MHC class I expression in a metastatic mouse tumor cell line (U.S. patent Ser. No. 14/548,726, Jefferies et. al., published 28 May 2015). This assay identified numerous compounds that increased MHC expression. […] In addition, some other cannabinoids induce expression of MHC class I on tumor cells.

[4] = system: A9 cells, soluble mouse proteins; assay: Cytokine secretion profile in Cannabigerol treated A9 cells (Proteome Profiler Mouse XL cytokine array); assay type: cell-based; conditions: 0.055 μM, 48 hours, versus DMSO
Description: FIG. 10A-10E show the cytokines and other markers that have increased or decreased expression after treatment with cannabinoids, as compared to interferon gamma. FIG. 10A) Inflammatory markers; FIG. 10B) Cell growth markers; FIG. 10C) Leukocyte migration markers; FIG. 10D) Cell growth and differentiation markers; FIG. 10E) summary of markers.
Cannabigerol and IFN gamma were dissolved in 1% Dimethyl Sulfoxide (DMSO) (Sigma) in media (1% DMSO). 1×10^6 A9 cells were plated onto a 6 well plate in two mL of DMEM media. Twenty-four hours after seeding, cells were cultured at the optimum concentrations of Cannabigerol 0.055 μM or 5.832×10^−6 nM IFN gamma or 1% DMSO vehicle for 48 hours. Relative expression levels of 111 soluble mouse proteins including cytokines, chemokines and growth factors were evaluated using the Proteome Profiler Mouse XL cytokine array kit (R&D System, ARY028) following the manufacturer's instructions. Spot densities on the array film were detected and quantified using Image J analysis software Image J protein analyzer add-on on a scanned version of the film. Quantification of the spot intensity in the arrays was conducted with background subtraction in ImageJ. To determine fold change, the treatment values of IFN gamma microarrays were divided by the DMSO negative control values of the concurring spots. A value of 1 was subtracted from the absolute value of this fold change, to correct the value of DMSO to “0”. Experiment was done in technical replicates.
There also was an increase in VEGFA. Additionally, there was downregulation of IL-10, and IL-11. There also was a decrease in the production of IGFBP1 and angiopoietin-1,

CCCCCc1cc(O)c(C/C=C(\C)CCC=C(C)C)c(O)c1 [Example 1, 2-[(2E)-3,7-dimethyl-2,6-octadien-1-yl]-5-pentyl-1,3-benzenediol] was tested, and the MFI ([1]; COLO 205, 10 μM) was 125, the MFI ([1]; COLO 205, 20 μM) was 130 and the “increase in MHC class I expression” value ([1]; COLO 205, 25 μM) was 25%. For the same compound, the MFI ([1]; COLO 205, 30 μM) was 130, the MFI ([1]; COLO 205, 40 μM) was 164 and the “increase in MHC class I expression” value ([1]; COLO 205, 50 μM) was 2 fold. The Cell viability ([1]; COLO 205, all treatment conditions (25 μM or 50 μM, 24 hours)) was over 95%, the fold induction at 10 µM ([1]; Homo sapiens, COLO 205) was 1.03 and the fold induction at 20 µM ([1]; Homo sapiens, COLO 205) was 1.07. For the same compound, the fold induction at 30 µM ([1]; Homo sapiens, COLO 205) was 1.07, the fold induction at 40 µM ([1]; Homo sapiens, COLO 205) was 1.36 and the cell death [2] was “limited cell death”. The “increase in MHC class I expression” value [2] was 1.8 fold, the “activity in the MHC class I screening assay” value [3] was “significant activity” and the FGF-21 expression [4] was “upregulated”. The IL-10 expression [4] was “downregulation”, the IL-11 expression [4] was “downregulation” and the IL-13 expression [4] was “upregulated”. For the same compound, the VEGFA expression [4] was “increase”, the “production of IGFBP1” value [4] was “decrease” and the “production of angiopoietin-1” value [4] was “decrease”.
